The text below walks through data of ChEMBL document CHEMBL1201862, “PubChem BioAssay data set” (2004).

Some test systems named below: ACHN; COLO 205; HCT-15; HL-60; K562; LOX IMVI; MDA-MB-231; MDA-MB-435; Malme-3M; NCI-H226; NCI-H23; OVCAR-3; OVCAR-4; RXF 393; SF-268; SK-MEL-2; SNB-19; SNB-75; SW-620; UACC-62.
Common to all, as to test: DTP human tumour cell line panel, 48 h

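Grown in 96-well plates, cells were treated for 48 hours with each compound at five concentrations. Insufficient inhibition: endpoint recorded as highest concentration tested. GI50: concentration for 50% inhibition of growth.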 Active and inactive are the calls of the source. Cut-off read from the data, not from the text of the source: active = GI50 up to about 1.1 µM and inactive = higher.

Regarding `COc1cc(C2C3=C(COC3=O)Oc3cc4c(cc32)OCO4)ccc1O` (stereo not given), the GI50 (as a rule, the concentration giving 50% growth inhibition) with ACHN is 0.653 µM (active); with COLO 205, 0.225 µM (active); with HCT-15, 0.476 µM; in the experiment on HL-60 it was 0.182 µM (active); in the experiment on K562, 0.148 µM (active); with LOX IMVI, 0.601 µM (active). The GI50 is 0.818 µM (active) in the experiment on MDA-MB-231; 0.0552 µM (active) in the experiment with MDA-MB-435; 0.174 µM (active) with Malme-3M; 9.55 µM (inactive) with NCI-H226; 0.65 µM (active) in the experiment with NCI-H23; 0.189 µM (active) in the experiment on OVCAR-3. In addition, the GI50 with OVCAR-4 is 0.321 µM (active); in the experiment on RXF 393, 0.306 µM (active); in the experiment on SF-268, 2.07 µM (inactive); in the experiment on SK-MEL-2, 0.543 µM (active); in the experiment on SNB-19, 0.333 µM (active); in the experiment on SNB-75, 0.225 µM (active). The figures for the GI50 with SW-620 and with UACC-62 were 0.329 µM (active) and 0.356 µM (active), respectively.
For `NC(=S)Nc1nc(=S)[nH]c2c1SC1=N/C(=C\c3ccco3)C(=O)N12`, the GI50 was > 100 µM (inactive) in the experiment on ACHN; > 100 µM (inactive) in the experiment on COLO 205; 48.8 µM with HCT-15; 19.1 µM (inactive) with HL-60; 28.4 µM (inactive) in the experiment with K562; 40.6 µM (inactive) in the experiment on LOX IMVI. The GI50 is > 100 µM (inactive) in the experiment on MDA-MB-231; > 100 µM (inactive) in the experiment with MDA-MB-435; 44.7 µM (inactive) with Malme-3M; > 47.8 µM (inactive) in the experiment on NCI-H226; > 100 µM (inactive) in the experiment on NCI-H23; > 89.7 µM (inactive) with OVCAR-3. In addition, the GI50 was 61.8 µM (inactive) in the experiment on OVCAR-4; > 100 µM (inactive) in the experiment on RXF 393; > 100 µM (inactive) with SF-268; > 83.4 µM (inactive) in the experiment on SK-MEL-2; > 100 µM (inactive) with SNB-19; > 57.1 µM (inactive) in the experiment with SNB-75. Besides, the GI50 with SW-620 and in the experiment on UACC-62 was > 100 µM (inactive) in each case.
On to `CCN(CCCOc1ccccc1)CCN(CC)CCCOc1ccccc1`, for which the GI50 in the experiment with ACHN was 16.3 µM (inactive); in the experiment with COLO 205, 5.86 µM (inactive); in the experiment with HCT-15 it was 10.4 µM; in the experiment on HL-60 it was 7.46 µM (inactive); in the experiment with K562, 3.1 µM (inactive); in the experiment on LOX IMVI, 10.8 µM (inactive). In addition, the GI50 in the experiment with MDA-MB-231 was 16.1 µM (inactive); in the experiment with MDA-MB-435 it was 13 µM (inactive); with Malme-3M, 15.8 µM (inactive); in the experiment on NCI-H226 it was 21.8 µM (inactive); with NCI-H23 it was 18.8 µM (inactive); in the experiment with OVCAR-3, 14.8 µM (inactive). For the same molecule, the GI50 in the experiment on OVCAR-4 is 18.6 µM (inactive); in the experiment with RXF 393 it was 13.4 µM (inactive); with SF-268 it was 12.6 µM (inactive); in the experiment with SK-MEL-2 it was 17.9 µM (inactive); in the experiment with SNB-19 it was 9.1 µM (inactive); in the experiment on SNB-75, 21.8 µM (inactive). Also, the GI50 in the experiment with SW-620 is 20.8 µM (inactive); with UACC-62, 14.2 µM (inactive).
Regarding `Oc1c(CN2CCOCC2)ccc(CN2CCOCC2)c1O`, the GI50 in the experiment with ACHN was 30.9 µM (inactive); in the experiment with COLO 205 it was 45.9 µM (inactive); in the experiment on HCT-15 it was 34 µM; in the experiment with HL-60, 3.8 µM (inactive); in the experiment on K562 it was 34.3 µM (inactive); in the experiment with LOX IMVI, 39 µM (inactive). In addition, the GI50 in the experiment on MDA-MB-231 is > 100 µM (inactive); in the experiment on MDA-MB-435 it was 81.7 µM (inactive); with Malme-3M it was 31 µM (inactive); in the experiment with NCI-H226, 28.4 µM (inactive); with NCI-H23 it was 36.6 µM (inactive); in the experiment with OVCAR-3, 21.2 µM (inactive). Also, the GI50 in the experiment with OVCAR-4 was > 100 µM (inactive); in the experiment with RXF 393 it was 29.2 µM (inactive); with SF-268, 30.9 µM (inactive); with SK-MEL-2 it was 29 µM (inactive); in the experiment with SNB-19 it was 43.3 µM (inactive); with SNB-75, 15.1 µM (inactive). Moreover, the values for the GI50 with SW-620 and in the experiment with UACC-62 were 83.6 µM (inactive) and 25.2 µM (inactive), respectively.
As to `COc1ccc(-c2nc(O)c3ccccc3n2)cc1`, the GI50 in the experiment with ACHN is > 10 µM (inactive); in the experiment on COLO 205 it was > 100 µM (inactive); with HCT-15, 43.1 µM; in the experiment with HL-60, > 100 µM (inactive); in the experiment on K562 it was > 100 µM (inactive); in the experiment on LOX IMVI it was 39.8 µM (inactive). The GI50 is 40.8 µM (inactive) with MDA-MB-231; > 100 µM (inactive) with MDA-MB-435; > 100 µM (inactive) with Malme-3M; 38.6 µM (inactive) in the experiment on NCI-H226; 87.5 µM (inactive) in the experiment on NCI-H23; > 100 µM (inactive) in the experiment with OVCAR-3. Further, the GI50 was 26.9 µM (inactive) with OVCAR-4; > 100 µM (inactive) in the experiment with RXF 393; > 100 µM (inactive) in the experiment on SF-268; > 100 µM (inactive) in the experiment with SK-MEL-2; > 100 µM (inactive) in the experiment with SNB-19; 40.4 µM (inactive) with SNB-75. The GI50 in the experiment on SW-620 was > 100 µM (inactive); in the experiment on UACC-62, 71.1 µM (inactive).
As for `CCCCCCCC(=O)OC[n+]1cccc(-c2c(COC(=O)NC(C)C)c(COC(=O)NC(C)C)c3n2CCC3)c1`, the GI50 is 34 µM (inactive) with ACHN; > 87.7 µM (inactive) in the experiment with COLO 205; above 100 µM with HCT-15; 24.3 µM (inactive) in the experiment on HL-60; 83.6 µM (inactive) with K562; 60.3 µM (inactive) in the experiment on LOX IMVI. Further, the GI50 in the experiment on MDA-MB-231 was > 100 µM (inactive); with MDA-MB-435, > 100 µM (inactive); with Malme-3M it was > 100 µM (inactive); in the experiment on NCI-H226, 97.5 µM (inactive); in the experiment with NCI-H23, 61.7 µM (inactive); in the experiment with OVCAR-3, > 100 µM (inactive). The GI50 with OVCAR-4 is > 100 µM (inactive); with RXF 393, 44.2 µM (inactive); in the experiment on SF-268, > 55.8 µM (inactive); in the experiment with SK-MEL-2 it was > 100 µM (inactive); with SNB-19, > 100 µM (inactive); in the experiment on SNB-75 it was > 78 µM (inactive). The figures for the GI50 in the experiment on SW-620 and in the experiment on UACC-62 were > 50.5 µM (inactive) and 38.1 µM (inactive), respectively.
In the case of `CC(=O)N1C(CCc2ccccc2)CC(C)(C=O)C1Cc1ccc(O[Si](C(C)C)(C(C)C)C(C)C)cc1` (stereo not given), the GI50 in the experiment on ACHN was 6.89 µM (inactive); in the experiment on COLO 205, 2.93 µM (inactive); in the experiment with HCT-15 it was 3.03 µM; in the experiment with HL-60, 1.76 µM (inactive); in the experiment on K562, 2.72 µM (inactive); with LOX IMVI, 1.94 µM (inactive). In addition, the GI50 in the experiment with MDA-MB-231 was 4.79 µM (inactive); in the experiment on MDA-MB-435, 2.63 µM (inactive); in the experiment with Malme-3M it was 14.2 µM (inactive); with NCI-H226, 6.76 µM (inactive); in the experiment on NCI-H23 it was 5.53 µM (inactive); in the experiment on OVCAR-3 it was 4.8 µM (inactive). The GI50 in the experiment on OVCAR-4 is 3.7 µM (inactive); in the experiment on RXF 393 it was 1.69 µM (inactive); with SF-268, 4.19 µM (inactive); with SK-MEL-2, 3.48 µM (inactive); in the experiment on SNB-19 it was 4.83 µM (inactive); in the experiment with SNB-75, 3.92 µM (inactive). Further, the figures for the GI50 in the experiment with SW-620 and in the experiment with UACC-62 were 3.21 µM (inactive) and 4.68 µM (inactive), respectively.
In the case of `O=C1NC(=O)C2=C1CCC2O` (stereo not given), the GI50 in the experiment on ACHN was > 100 µM (inactive); in the experiment with COLO 205 it was > 100 µM (inactive); in the experiment with HCT-15, above 100 µM; in the experiment with HL-60, > 100 µM (inactive); with K562 it was > 100 µM (inactive); in the experiment on LOX IMVI, > 100 µM (inactive). For the same molecule, the GI50 in the experiment with MDA-MB-231, with MDA-MB-435, in the experiment with Malme-3M, in the experiment on NCI-H226, in the experiment on NCI-H23 and in the experiment with OVCAR-3 was > 100 µM (inactive) each time. Also, the GI50 with OVCAR-4, in the experiment with RXF 393, in the experiment with SF-268, with SK-MEL-2, with SNB-19 and with SNB-75 was > 100 µM (inactive) throughout. Further, the GI50 with SW-620 and with UACC-62 was > 100 µM (inactive) in each case.
As to `COc1ccc(Cc2nc3cc(Cl)ccc3o2)cc1`, the GI50 was 59 µM (inactive) in the experiment on ACHN; 28.4 µM (inactive) with COLO 205; 26.9 µM with HCT-15; 28.4 µM (inactive) in the experiment on HL-60; 34.4 µM (inactive) in the experiment on K562; 23.5 µM (inactive) with LOX IMVI. Also, the GI50 is 30.8 µM (inactive) in the experiment on MDA-MB-231; 22.1 µM (inactive) in the experiment on MDA-MB-435; 26.7 µM (inactive) in the experiment on Malme-3M; 21.5 µM (inactive) in the experiment on NCI-H226; 29.2 µM (inactive) with NCI-H23; 27 µM (inactive) in the experiment on OVCAR-3. For the same molecule, the GI50 was 18.8 µM (inactive) with OVCAR-4; 22.6 µM (inactive) in the experiment on RXF 393; 45.4 µM (inactive) in the experiment on SF-268; 23.3 µM (inactive) with SK-MEL-2; 42.2 µM (inactive) in the experiment with SNB-19; 13.1 µM (inactive) in the experiment with SNB-75. For the same molecule, the GI50 in the experiment on SW-620 is 35.5 µM (inactive); with UACC-62, 60 µM (inactive).
`O=C1CC2OCC=C3CN4CCC5(C(=O)O)C(N1)C2C3CC45` (stereo not given): the GI50 in the experiment on ACHN is > 100 µM (inactive); in the experiment on COLO 205 it was > 100 µM (inactive); in the experiment on HCT-15, above 100 µM; with HL-60 it was > 100 µM (inactive); in the experiment with K562, > 100 µM (inactive); in the experiment with LOX IMVI, > 100 µM (inactive). Moreover, the GI50 in the experiment with MDA-MB-231, in the experiment with MDA-MB-435, in the experiment on Malme-3M, with NCI-H226, with NCI-H23 and in the experiment on OVCAR-3 was > 100 µM (inactive) throughout. In addition, the GI50 in the experiment with OVCAR-4, with RXF 393, in the experiment with SF-268, in the experiment with SK-MEL-2, with SNB-19 and with SNB-75 was > 100 µM (inactive) throughout. For the same molecule, the GI50 in the experiment with SW-620 and in the experiment on UACC-62 was > 100 µM (inactive) in each case.
